Data published in article PMC11083148, “Structure–Activity Relationship Studies on Highly Functionalized Pyrazole Hydrazones and Amides as Antiproliferative and Antioxidant Agents” (International Journal of Molecular Sciences, 2024).

Key:
washed platelets [1] = assay: Platelet aggregation (thrombin-induced, Born's method); type: cell-based; details: Homo sapiens, 0.1 U/mL thrombin, mean ± SD, read-out: IC50 Aggregation inhibition
How it was run: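 Washed human platelets (3.0 × 10^8/mL) were preincubated with compound at 37 °C for 3 min. Aggregation was then triggered with 0.1 U/mL thrombin and measured by Born's turbidimetric method, with IC50 values calculated from the response.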

washed platelets [2] = assay: ROS assay in platelets (DCFH-DA, thrombin-stimulated); type: cell-based, human; details: Homo sapiens, Platelet, 0.1 U/mL thrombin, mean ± SD, read-out: IC50 ROS production inhibition
How it was run: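 Washed human platelets (1.0 × 10^8/mL) in pH 7.4 HEPES buffer were pre-incubated 15 min at 37 °C with compound, then stimulated with 0.1 U/mL thrombin. ROS was read as DCF fluorescence from DCFH-DA by flow cytometry. IC50 comes from three-point concentration-response nonlinear regression versus saline control, mean of six experiments.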

CCRF-CEM = assay: NCI screening, Leukemia; type: cell-based; details: 10 µM
Protocol: (§1) In addition, 11a and 17 (representative compounds of the acylhydrazone and amide series) were selected by the National Cancer Institute (NCI, Germantown, MD, USA) and tested at a fixed concentration of 10 µM against a panel of fifty-nine different cancer cell lines, including highly metastatic tumors (Table 2).

MOLT-4 = assay: NCI screening, Leukemia; type: cell-based; details: MOLT-4, Leukemia; 10 µM
Protocol: as §1

RPMI-8226 = assay: NCI screening, Leukemia; type: cell-based; details: RPMI-8226, Leukemia; 10 µM
Protocol: as §1

SF-268 = assay: NCI screening, CNS Cancer; type: cell-based; details: SF-268, CNS Cancer; 10 µM
Protocol: as §1

SF-295 = assay: NCI screening, CNS Cancer; type: cell-based; details: SF-295, CNS Cancer; 10 µM
Protocol: as §1

SF-539 = assay: NCI screening, CNS Cancer; type: cell-based; details: SF-539, CNS Cancer; 10 µM
Protocol: as §1

SNB-19 = assay: NCI screening, CNS Cancer; type: cell-based; details: SNB-19, CNS Cancer; 10 µM
Protocol: as §1

SNB-75 = assay: NCI screening, CNS Cancer; type: cell-based; details: SNB-75, CNS Cancer; 10 µM
Protocol: as §1

U251 = assay: NCI screening, CNS Cancer; type: cell-based; details: 10 µM
Protocol: as §1

786-0 = assay: NCI screening, Renal Cancer; type: cell-based; details: 786-0, Renal Cancer; 10 µM
Protocol: as §1

A498 = assay: NCI screening, Renal Cancer; type: cell-based; details: 10 µM
Protocol: as §1

ACHN = assay: NCI screening, Renal Cancer; type: cell-based; details: 10 µM
Protocol: as §1

CAKI-1 = assay: NCI screening, Renal Cancer; type: cell-based; details: CAKI-1, Renal Cancer; 10 µM
Protocol: as §1

RXF 393 = assay: NCI screening, Renal Cancer; type: cell-based; details: RXF 393, Renal Cancer; 10 µM
Protocol: as §1

SN12C = assay: NCI screening, Renal Cancer; type: cell-based; details: 10 µM
Protocol: as §1

TK-10 = assay: NCI screening, Renal Cancer; type: cell-based; details: TK-10, Renal Cancer; 10 µM
Protocol: as §1

UO-31 = assay: NCI screening, Renal Cancer; type: cell-based; details: UO-31, Renal Cancer; 10 µM
Protocol: as §1

CCOC(=O)c1c(NC(=O)C2CC2)nn(C)c1Nc1ccccc1 [compound 17, Ethyl 3-(cyclopropanecarboxamido)-1-methyl-5-(phenylamino)-1H-pyrazole-4-carboxylate]
IC50 (washed platelets [1]): 460 µM | IC50 (washed platelets [2]): 573 µM | Growth Percentage (%) (CCRF-CEM): 97.75% | Growth Percentage (%) (MOLT-4): 101.92% | Growth Percentage (%) (RPMI-8226): 99.62% | Growth Percentage (%) (SF-268): 101.17% | Growth Percentage (%) (SF-295): 102.51% | Growth Percentage (%) (SF-539): 97.42% | Growth Percentage (%) (SNB-19): 98.39% | Growth Percentage (%) (SNB-75): 94.70% | Growth Percentage (%) (U251): 100.80% | Growth Percentage (%) (786-0): 101.26% | Growth Percentage (%) (A498): 92.87% | Growth Percentage (%) (ACHN): 104.77% | Growth Percentage (%) (CAKI-1): 86.39% | Growth Percentage (%) (RXF 393): 101.07% | Growth Percentage (%) (SN12C): 104.27% | Growth Percentage (%) (TK-10): 107.78% | Growth Percentage (%) (UO-31): 87.45%

COc1ccc(/C=N/NC(=O)c2c(N)nn(C)c2Nc2ccccc2)cc1 [11a, (E)-3-amino-N′-(4-methoxybenzylidene)-1-methyl-5-(phenylamino)-1H-pyrazole-4-carbohydrazide]
IC50 (washed platelets [1]): 183 ± 13 µM | IC50 (washed platelets [2]): 123 ± 12 µM | Growth Percentage (%) (CCRF-CEM): 38.45% | Growth Percentage (%) (MOLT-4): 49.41% | Growth Percentage (%) (RPMI-8226): 61.65% | Growth Percentage (%) (SF-268): 58.65% | Growth Percentage (%) (SF-295): 98.52% | Growth Percentage (%) (SF-539): 40.20% | Growth Percentage (%) (SNB-19): 36.78% | Growth Percentage (%) (SNB-75): 35.14% | Growth Percentage (%) (U251): 33.33% | Growth Percentage (%) (786-0): 57.97% | Growth Percentage (%) (A498): 33.08% | Growth Percentage (%) (ACHN): 49.99% | Growth Percentage (%) (CAKI-1): 39.84% | Growth Percentage (%) (RXF 393): 37.26% | Growth Percentage (%) (SN12C): 57.59% | Growth Percentage (%) (TK-10): 89.16% | Growth Percentage (%) (UO-31): 51.18%
